Measured values as given in patent publication US7799535B1 (priority 1997, dated 2010).
Like-named read-outs stand apart in the source and are kept apart here.

Legend:
35S-PrPC = 35S-PrPC (Mesocricetus auratus, UniProt P04273); format: biochemical, hamster
Hsp104 [1] = target: T1, Hsp104 (Saccharomyces cerevisiae, UniProt P31539); format: binding, yeast
Hsp104 [2] = target: T1, Hsp104; format: biochemical, yeast
rPrPβ = rPrPβ (Mesocricetus auratus, UniProt P04273); format: binding, hamster; details: LSB2; each at 0.5 mg/ml; 37° C. for 1 hr
Sup35 = Sup35 (Saccharomyces cerevisiae, UniProt P05453); assay: Circular dichroism spectral shifts of mixtures with Sup35; format: binding, yeast; details: LSB1; 1 hr, 1 mM ATP, 37° C.
Protocol: Reactions were incubated for 1 hr with 1 mM ATP at 37° C., and transferred to a 0.1 mm path-length cuvette. Spectra were recorded at 25° C. in a Jasco 715 spectropolarimeter (bandwidth 1.0 nm, response time 16 sec, speed 20 nm/min, step resolution 0.2 nm, accumulations 4).

[3] = reactions seeded with partially denatured PrPSc
[4] = reactions seeded with untreated PrPSc

T1 sequence (P31539 whole entry, looked up): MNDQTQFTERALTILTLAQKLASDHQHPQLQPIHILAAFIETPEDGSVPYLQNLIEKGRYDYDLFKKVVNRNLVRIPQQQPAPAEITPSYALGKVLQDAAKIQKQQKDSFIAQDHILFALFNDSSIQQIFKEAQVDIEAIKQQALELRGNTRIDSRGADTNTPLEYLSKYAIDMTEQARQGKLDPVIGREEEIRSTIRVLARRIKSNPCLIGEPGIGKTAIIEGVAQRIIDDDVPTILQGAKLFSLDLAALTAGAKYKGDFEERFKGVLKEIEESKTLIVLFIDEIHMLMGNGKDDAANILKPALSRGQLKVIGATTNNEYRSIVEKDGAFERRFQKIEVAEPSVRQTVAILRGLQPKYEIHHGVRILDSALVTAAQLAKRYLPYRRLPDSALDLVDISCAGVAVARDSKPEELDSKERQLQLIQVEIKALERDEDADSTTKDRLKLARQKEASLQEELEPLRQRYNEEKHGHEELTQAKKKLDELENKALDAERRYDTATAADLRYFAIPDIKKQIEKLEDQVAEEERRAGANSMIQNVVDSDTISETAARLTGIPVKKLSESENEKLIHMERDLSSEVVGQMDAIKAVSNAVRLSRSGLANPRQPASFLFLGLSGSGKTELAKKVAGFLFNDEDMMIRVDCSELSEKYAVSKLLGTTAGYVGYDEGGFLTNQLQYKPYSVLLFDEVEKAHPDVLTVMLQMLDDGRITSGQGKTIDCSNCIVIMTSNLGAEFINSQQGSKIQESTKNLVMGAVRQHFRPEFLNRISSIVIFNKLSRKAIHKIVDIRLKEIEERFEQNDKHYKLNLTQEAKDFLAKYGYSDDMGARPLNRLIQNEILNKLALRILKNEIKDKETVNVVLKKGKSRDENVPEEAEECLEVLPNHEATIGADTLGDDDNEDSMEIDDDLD
Sequence of 35S-PrPC (P04273 23-231 limits assumed): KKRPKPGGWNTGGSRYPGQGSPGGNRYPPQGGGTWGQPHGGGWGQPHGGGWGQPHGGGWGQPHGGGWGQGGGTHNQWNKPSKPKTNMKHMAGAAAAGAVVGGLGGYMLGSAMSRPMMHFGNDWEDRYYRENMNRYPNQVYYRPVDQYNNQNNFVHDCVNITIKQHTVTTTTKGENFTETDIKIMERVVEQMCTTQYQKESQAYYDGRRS
Sequence of rPrPβ (P04273 90-231 limits assumed): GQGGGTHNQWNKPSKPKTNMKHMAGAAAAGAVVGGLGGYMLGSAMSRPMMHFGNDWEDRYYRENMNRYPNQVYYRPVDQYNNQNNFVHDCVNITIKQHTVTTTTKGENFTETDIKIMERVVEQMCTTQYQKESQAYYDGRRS
Sequence of Sup35 (P05453 whole entry): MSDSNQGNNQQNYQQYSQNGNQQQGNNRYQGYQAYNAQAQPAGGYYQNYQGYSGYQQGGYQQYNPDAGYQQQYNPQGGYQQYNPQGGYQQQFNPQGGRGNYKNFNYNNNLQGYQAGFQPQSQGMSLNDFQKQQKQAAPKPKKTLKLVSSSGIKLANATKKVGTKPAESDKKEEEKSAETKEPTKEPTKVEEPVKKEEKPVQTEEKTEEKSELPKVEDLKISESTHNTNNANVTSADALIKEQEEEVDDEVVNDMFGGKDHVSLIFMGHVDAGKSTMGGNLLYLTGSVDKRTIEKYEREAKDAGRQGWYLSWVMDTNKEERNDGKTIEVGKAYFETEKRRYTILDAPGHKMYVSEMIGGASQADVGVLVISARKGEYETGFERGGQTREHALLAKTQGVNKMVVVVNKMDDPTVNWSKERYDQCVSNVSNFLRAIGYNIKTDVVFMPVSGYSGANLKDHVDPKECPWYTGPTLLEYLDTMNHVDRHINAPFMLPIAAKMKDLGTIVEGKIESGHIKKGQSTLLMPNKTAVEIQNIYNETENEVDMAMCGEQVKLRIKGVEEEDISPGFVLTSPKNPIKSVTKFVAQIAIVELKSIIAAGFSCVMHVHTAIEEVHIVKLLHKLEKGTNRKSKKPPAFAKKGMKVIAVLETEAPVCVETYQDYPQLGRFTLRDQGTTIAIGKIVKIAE

Row | Molecule | effect of chemical chaperones on 35S-PrPC conversion (35S-PrPC; [3]) | effect of chemical chaperones on 35S-PrPC conversion (35S-PrPC; [4]) | effect of chemical chaperones on 35S-PrPC conversion (35S-PrPC; reactions without PrPSc) | CD spectrum of mixture with rPrPβ compared with predicted spectrum (rPrPβ) | further results
1 | OC[C@H]1O[C@@](CO)(O[C@H]2O[C@H](CO)[C@@H](O)[C@H](O)[C@H]2O)[C@@H](O)[C@@H]1O [sucrose] | inhibited conversion | None of the compounds tested affected | None of the compounds tested affected | – | –
2 | OC[C@H]1O[C@H](O[C@H]2O[C@H](CO)[C@@H](O)[C@H](O)[C@H]2O)[C@H](O)[C@@H](O)[C@@H]1O [trehalose] | inhibited conversion | None of the compounds tested affected | None of the compounds tested affected | – | –
3 | Nc1ncnc2c1ncn2[C@@H]1O[C@H](COP(=O)(O)OP(=O)(O)OP(=O)(O)O)[C@@H](O)[C@H]1O [ATP] | – | – | – | – | rate of change in CD spectrum with Sup35 and Hsp104 (Hsp104 [1]): markedly increased the rate
4 | β-amyloid 1-40: a less amyloidogenic derivative of β-amyloid | – | – | – | – | effect on the ATPase activity of Hsp104 (in words) (Hsp104 [2]): Less inhibition
5 | β-galactosidase | – | – | – | much smaller | –
6 | β-amyloid 1-42: amyloidogenic peptide, fragment found in neural plaques associated with Alzheimer's disease | – | – | – | – | effect on the ATPase activity of Hsp104 (in words) (Hsp104 [2]): inhibited
7 | OCC(O)CO [glycerol] | no effect | None of the compounds tested affected | None of the compounds tested affected | – | –
8 | C[S+](C)[O-] [DMSO, dimethyl sulfoxide] | – | None of the compounds tested affected | None of the compounds tested affected | – | effect on conversion (35S-PrPC; partially denatured PrPSc, higher levels (up to 30%)): virtually eliminated conversion; stimulation of conversion (35S-PrPC; partially denatured PrPSc, intermediate levels (1-3%)): 2-3 fold
9 | α-2 macroglobulin | – | – | – | much smaller | CD spectrum of mixture with Sup35 compared with predicted spectrum (Sup35): observed spectra matched the predicted spectra; CD spectrum of mixture with Hsp104 compared with predicted spectrum (Hsp104 [1]): observed spectra matched the predicted spectra
10 | α-lactalbumin | – | – | – | much smaller | CD spectrum of mixture with Sup35 compared with predicted spectrum (Sup35): observed spectra matched the predicted spectra; CD spectrum of mixture with Hsp104 compared with predicted spectrum (Hsp104 [1]): observed spectra matched the predicted spectra
